How the values were obtained:
[1] = Potentiometric titration of the ligand DPDP; format: physicochemical; conditions: pH of 3 and above
Experimental: The compound DPDP was studied potentiometrically from pH 11.2 to 2.0. Data sets were collected on a custom-built automatic potentiometric titration apparatus composed of a METROHM 655 DOSIMAT automatic buret, a FISHER ACCUMET pH meter with a CORNING calomel combination electrode, a custom-blown water jacketed titration cell, a BRINKMAN LAUDA K-2/R constant temperature bath and a COMMODORE 64 computer. […] Data analysis was performed on an IBM-AT computer using the least squares program, BETA (Harris, W. et al, supra), and the data analysis program, HANDNBAR (Harris, W. et al, supra). The titrants were standardized by phenophthalein titration as follows: KOH was calibrated against potassium hydrogen phthalate (a primary standard), and HCl solutions were calibrated against the KOH standard. […] All solutions were made from distilled, deionized water that was further purified on a MILLI-Q cartridge system, degassed, and then kept under an atmosphere of argon which had been scrubbed for CO2 and O2. Additions of EDTA and Mn(II) solutions were performed using calibrated GILMOT pipets.

[2] = cited from earlier work

## Cc1ncc(COP(=O)(O)O)c(CN(CCN(CC(=O)O)Cc2c(COP(=O)(O)O)cnc(C)c2O)CC(=O)O)c1O [DPDP, N,N'-bis-(pyridoxal-5-phosphate)ethylenediamine-N,N'-diacetic acid or N,N'-bis(3-hydroxy-2-methyl-5-phosphonomethyl-4-pyridylmethyl)ethylenediamine-N,N'-diacetic acid]
[1]
  ionization state of the ligand: anionic and possesses deprotonated metal binding sites

## O=C(O)C(NCCNC(C(=O)O)c1ccccc1O)c1ccccc1O (centres unmarked) [EHPG, N,N'-ethylenebis-2-(o-hydroxyphenyl)glycine]
[2]; Anderegg et al
  stability of the Fe(III) chelate: high stability
[2]; above pH 5, also under inert atmospheres, Frost et al
  oxidation of manganese(II) in EHPG complexes: irreversibly oxidized

## O=C(O)CN(CCN(CC(=O)O)Cc1ccccc1O)Cc1ccccc1O [HBED, N,N'-bis(2-hydroxybenzyl)ethylenediamine-N,N'-diacetic acid]
[2]; manganese chelate, reported by L'Eplathenier et al
  log Kf (formation constant): 14.8
[2]; titrations of L'Eplathenier et al, judged from Patch et al
  oxidation of manganese(II) by the phenolic ligand during titration: oxidized by the phenolic ligand

— patent US4933456A, “Dipyridoxyl phosphate NMRI contrast agents” (Salutar, Inc., priority 1987, dated 1990)
